Results reported in article PMC3260554 (Nature Neuroscience, 2010).
Where two headings read alike, the source gives them in different places.

Assays:
mice = test: Acetic acid-induced writhing; format: in vivo, Swiss Webster mice
FAAH [1] = test system: FAAH
[2] = Drug distribution coefficient n-octanol / buffer pH 7.4; format: physicochemical; details: n-octanol / aqueous buffer pH 7.4, 25±1°C, mean±s.e.m, n = 3
[3] = test system: human epithelial TC7 cells; test: Permeability and efflux ratio through polarized TC7 monolayers; format: in vitro ADME; details: mean of 2 independent experiments
[4] = Temporal tissue distribution of URB937 in liver, brain and serum; format: in vivo, Swiss Webster mice; details: 1 mg-kg^−1, i.p., mice
FAAH [5] = biological target: T1, FAAH (Mus musculus, UniProt O08914); format: in vivo, Swiss Webster mice
T1 sequence (O08914 1-579): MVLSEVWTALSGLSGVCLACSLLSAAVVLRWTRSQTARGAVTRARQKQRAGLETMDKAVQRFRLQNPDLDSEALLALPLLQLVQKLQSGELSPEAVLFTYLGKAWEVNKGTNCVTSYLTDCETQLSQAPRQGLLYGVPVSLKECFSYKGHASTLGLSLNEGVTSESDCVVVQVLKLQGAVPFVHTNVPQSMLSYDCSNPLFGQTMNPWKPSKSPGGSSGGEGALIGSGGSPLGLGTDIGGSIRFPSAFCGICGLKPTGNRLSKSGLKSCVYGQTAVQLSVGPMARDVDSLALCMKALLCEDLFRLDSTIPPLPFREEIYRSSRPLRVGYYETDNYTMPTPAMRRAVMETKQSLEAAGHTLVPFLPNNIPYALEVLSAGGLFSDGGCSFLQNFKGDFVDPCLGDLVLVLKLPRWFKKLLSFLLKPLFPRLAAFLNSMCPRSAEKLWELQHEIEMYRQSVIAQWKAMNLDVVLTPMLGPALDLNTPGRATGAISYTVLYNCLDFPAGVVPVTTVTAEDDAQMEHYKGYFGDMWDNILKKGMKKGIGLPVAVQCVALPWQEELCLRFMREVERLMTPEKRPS

Fos protein = test: Formalin-induced spinal cord Fos protein expression; format: in vivo, Sprague-Dawley rats
[6] = ex vivo 1 h after injection, 1 mg-kg^−1 i.p., Swiss Webster mice, n = 3
[7] = s.c., mice, 1 h after injection

COc1ccc(C(=O)c2c(C)n(CCN3CCOCC3)c3cc(I)ccc23)cc1 [AM630]
Effect of antagonist on the antinociceptive effect of URB937 (writhing) (mice; antagonist 1 mg-kg^−1, s.c., with URB937 1 mg-kg^−1 s.c.): ineffective

NC(=O)c1cccc(-c2cccc(OC(=O)NC3CCCCC3)c2)c1 [Compound 1a, cyclohexylcarbamic acid 3′-carbamoylbiphenyl-3-yl ester, reference compound]
Effect on brain FAAH activity (FAAH [1]; in vivo, ip): markedly reduced

NC(=O)c1cccc(-c2cc(OC(=O)NC3CCCCC3)ccc2O)c1 [Compound 1b]
distribution coefficient, LogDoct,pH7.4 [2]: 3.03±0.01 | % recovery A–B [3]: 83% | % recovery B-A [3]: 95% | permeability B-A [3]: 37.1 ×10⁻⁶ cm/s | Distribution in blood and liver after systemic administration [4]: distributed rapidly in blood and liver | Presence in brain tissue after systemic administration [4]: undetectable | Effect on brain FAAH activity (FAAH [1]; 25 mg-kg^−1, i.p.): no effect | Time course of peripheral FAAH inhibition in vivo (FAAH [5]; Supplementary Figure 1): rapidly and lastingly | FAAH Inhibition in brain (FAAH [5]; [6]): −3.0 ± 8.0% | FAAH Inhibition in liver (FAAH [5]; [6]): 91.7 ± 0.7% | ED50 for FAAH inhibition in brain (FAAH [5]; [7]): 40 mg/kg | ED50 for FAAH inhibition in liver (FAAH [5]; [7]): 0.2 mg/kg

COc1ccc2c(c1)c(CC(=O)O)c(C)n2C(=O)c1ccc(Cl)cc1 [indomethacin]
Effect on acetic acid-induced writhing relative to URB937 (mice; 1 mg-kg^−1, s.c., 1 h before test): comparable in efficacy

Cc1c(C(=O)NN2CCCCC2)nn(-c2ccc(Cl)cc2Cl)c1-c1ccc(Cl)cc1 [rimonabant]
Effect on Fos levels when administered without URB937 (Fos protein; 2 mg-kg^−1, i.p., rats): did not significantly alter Fos levels | Effect of antagonist on URB937 suppression of Fos expression (Fos protein; rimonabant 2 mg-kg^−1, i.p., with URB937): prevented
